Source: patent US4236012A, “5-Phenethyl-2-oxazolidone derivatives and a process for producing the same” (Nippon Chemiphar Company, Limited, priority 1978, dated 1980)

Key:
Type in all cases: in vivo, dd Male mice
mice [1] = test: Analgetic Effect on Acetic Acid-Induced Writhing Method; settings: Mus musculus, oral, 30 minutes before intraperitoneal 0.6% acetic acid, writhing within 20 minutes, Litchfield Wilcoxon method
Description: (2) Analgetic Effect on Acetic Acid-Induced Writhing Method:
dd Male mice weighing 18 to 22 g, each group consisting of ten animals were given an intraperitoneal injection of 0.6% acetic acid in a dosage of 0.1 ml/10 g per body weight. The number of writhing syndromes occurring within 20 minutes after the injection was observed. Thereafter, the mice were orally given the test compounds suspended in a 0.2% carboxymethylcellulose solution 30 minutes before the injection of acetic acid. The inhibitory percentage was estimated in comparison with a control in which only a 0.2% carboxymethylcellulose solution was given, and the ED50 values were calculated by the Litchfield Wilcoxon method.

mice [2] = test: Muscular Relaxing Effect: Traction Test; settings: Mus musculus, oral, hind legs on wire within 5 seconds, maximum response over 15-180 minutes, Litchfield Wilcoxon method, read-out: ED50 Values, T.T (Traction Test)
Description: (§1) (1) Muscular Relaxing Effect:
(§2) dd Male mice weighing 18 to 22 g, one group consisting of ten animals were orally given the compounds (I) to (III) each suspended in a 0.2% carboxymethylcellulose solution in a dosage of 0.25 ml/10 g per body weight. Mephenesin and 5-(o-chlorobenzyl)-2-oxazoline were used as active placebos. The experiment was carried out according to the methods (a) to (c) as described below, and the ED50 values were calculated by the Litchfield Wilcoxon method, based on the maximum response in each dosage which was measured at intervals of 15, 30, 45, 60, 90, 120, 150 and 180 minutes after the administration of each of the test compounds.

mice [3] = test: Muscular Relaxing Effect: Inclined Plane Test; settings: Mus musculus, oral, veneer inclined at 30 degrees and wire network at 60 degrees, maximum response over 15-180 minutes, Litchfield Wilcoxon method, read-out: ED50 Values, I.P (Inclined Plane Test)
Description: as §1, §2
Mice were placed on veneer inclined at an angle of 30 degrees and on a wire network inclined at an angle of 60 degrees of which one mesh was 5 mm square, and the mice sliding down were considered as positive in comparison with their normal behavior.

mice [4] = test: Muscular Relaxing Effect: Rotarod Method; settings: Mus musculus, oral, falling within 3 minutes from rod of 3 cm diameter at 10 rpm, maximum response over 15-180 minutes, Litchfield Wilcoxon method, read-out: ED50 Values, R.R (Rotarod Method)
Description: as §1, §2
Mice were placed on Rotar Load (made by Natsume Seisakusho Co., Ltd.) having a diameter of 3 cm and rotating at a speed of 10 rpm, and their falling (occurring within 3 minutes) was observed.

SMILES	ED50 (mice [1]) [mg/kg]	ED50 (mice [2]) [mg/kg]	ED50 (mice [3]) [mg/kg]	ED50 (mice [4]) [mg/kg]
Cc1c(N(C)C)c(=O)n(-c2ccccc2)n1C [Aminopyrine]	64			
O=C1NCC(Cc2ccccc2Cl)O1 (centres unmarked) [Compound A, 5-(o-Chlorobenzyl)-2-oxazolidone, reference compound]	40	390	330	210
O=C1NCC(CCc2ccccc2)O1 (centres unmarked) [Compound I, 5-Phenethyl-2-oxazolidone]		217	261	196
O=C1NCC(CCc2ccccc2F)O1 (centres unmarked) [Compound II, 5-(o-Fluorophenethyl)-2-oxazolidone]		230	297	194
O=C1NCC(CCc2ccccc2Cl)O1 (centres unmarked) [Compound III, 5-(o-Chlorophenethyl)-2-oxazolidone]	36	225	268	182
Cc1ccccc1OCC(O)CO (centres unmarked) [Mephenesin, reference compound]		460	470	
